From ChEMBL document CHEMBL1140676, “Evaluation of broad spectrum protein kinase inhibitors to probe the architecture of the malarial cyclin dependent protein kinase Pfmrk” (Bioorg Med Chem Lett, 2007)
pIC50: −log10 of the molar value.

How the values were obtained:
[1] = system: Plasmodium falciparum; test: Antimalarial activity against drug-resistant Plasmodium falciparum D6; format: functional, organism-based
[2] = target: T1, Protein kinase Pfmrk (Plasmodium falciparum, UniProt P90584); test: Inhibition of Plasmodium falciparum Pfmrk
T1 sequence (P90584 whole entry): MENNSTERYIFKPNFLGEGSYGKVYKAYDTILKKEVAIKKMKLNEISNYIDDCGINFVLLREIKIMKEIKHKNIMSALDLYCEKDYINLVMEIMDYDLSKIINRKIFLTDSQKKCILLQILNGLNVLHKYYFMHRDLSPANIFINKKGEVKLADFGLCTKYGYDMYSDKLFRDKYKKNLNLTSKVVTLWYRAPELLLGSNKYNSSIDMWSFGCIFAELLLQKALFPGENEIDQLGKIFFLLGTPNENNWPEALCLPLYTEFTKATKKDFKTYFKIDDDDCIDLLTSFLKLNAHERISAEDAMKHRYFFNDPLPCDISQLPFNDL

[3] = system: Plasmodium falciparum; test: Antimalarial activity against drug-resistant Plasmodium falciparum W2; format: functional, organism-based

NCCNS(=O)(=O)c1cccc2cnccc12
pIC50 [1]: < 4.14 | pIC50 [2]: 6.15 | pIC50 [3]: < 4.14

CNCCNS(=O)(=O)c1cccc2cnccc12
pIC50 [1]: < 4.13 | pIC50 [2]: 4.15 | pIC50 [3]: < 4.43

NCCCCCCNS(=O)(=O)c1cccc2c(Cl)cccc12
pIC50 [1]: 5.06 | pIC50 [2]: < 3.30 | pIC50 [3]: 4.82

NCCCCNS(=O)(=O)c1cccc2c(Cl)cccc12
pIC50 [2]: < 3.30

O=S(=O)(NCCNC/C=C/c1ccc(Br)cc1)c1cccc2cnccc12
pIC50 [1]: 5.32 | pIC50 [2]: < 3.30 | pIC50 [3]: 5.68

NCCCCNS(=O)(=O)c1ccc2ccccc2c1
pIC50 [2]: < 3.30

O=S(=O)(c1cccc2cnccc12)N1CCNCC1
pIC50 [1]: < 4.44 | pIC50 [2]: < 3.30 | pIC50 [3]: 5.37

C[C@H]1CNCCN1S(=O)(=O)c1cccc2cnccc12
pIC50 [1]: < 4.16 | pIC50 [2]: < 3.30 | pIC50 [3]: 5.27

O=S(=O)(c1cccc2cnccc12)N1CCCNCC1 [FASUDIL]
pIC50 [2]: < 3.30

O=S(=O)(c1cccc2c(I)cccc12)N1CCCNCC1
pIC50 [2]: < 3.30

O=S(=O)(c1cccc2c(Cl)cccc12)N1CCCNCC1
pIC50 [2]: < 3.30

N=C(N)NCCNS(=O)(=O)c1cccc2cnccc12
pIC50 [2]: < 3.30
